Experimental data published in patent US7632814B2, “HYD1 peptides as anti-cancer agents” (University of South Florida, priority 2006, dated 2009).
Where no end group is shown, it is not given here. [ ]: non-standard residue; d: D form.

Tests used:
H929 cells [1] = test: Electron microscopy of double membrane vesicles; format: cell-based; conditions: 100 μg/ml, 4 hours
Procedure: H929 cells were treated with either 100 µg/ml HYD1 (FIG. 24A) or HYD1S (FIG. 24B) for four hours and processed for electron microscopy as described in materials and methods.
Electron Microscopy. H929 cells were treated for four hours with either 100 μg/ml HYD1 or HYD1S. After peptide treatment, the samples were fixed overnight in 2.5% glutaraldehyde in 0.1M phosphate buffer, pH 7.2 overnight at four degrees. Following fixation, the cells were rinsed 2 times for 10 minutes each in 0.1M phosphate buffer, pH 7.2, at 4° C. The cells were loosely pelleted in microcentrifuge tubes at 500×G for 3 minutes. The buffer was removed from the cells and replaced with 1% osmium tetroxide in the above buffer at 4° C. The cells were resuspended and post-fixed for 1 hour, then loosely pelleted and rinsed in the above buffer. This step was repeated for a total of 3 rinses of 5 minutes each, with the cells being resuspended after each buffer change. Cells were dehydrated through a graded series of acetone, 30%, 50%, 70%, and 95% acetone in water, 5 minutes per change with loose pelleting at 750×G for 5 minutes, then resuspension for each step. The cells were then dehydrated through three changes of 100% acetone, 10 minutes per change, with a 5 minute pelleting step at 1000×G, followed by resuspension in each step. […]

H929 cells [2] = test: Lysosensor staining of acidic vesicles, confocal microscopy; format: cell-based; conditions: 100 μg/ml, six hours, compared to control cells
Procedure: (§1) Lysosensor green was used to detect acidic compartments and live cell imaging was performed by confocal microscopy. Shown is a representative figure. The experiment was repeated three independent times and similar results were obtained.
(§2) Lysosensor staining. 35 mm glass bottom microwell dishes were incubated with 10 ul Cell-tak (BD biosciences San Jose, Calif.) and 290 ul 0.5M sodium bicarbonate (Sigma) for 30 minutes. The plates were aspirated and 200,000H929 or 8226 cells were plated. Cells were then treated with either water (VC), 100 μg/ml HYD1 or 100 μg/ml HYD1S for 6 hours. After the 6-hour incubation, the plates were aspirated and washed once with warm media. Media containing 1 μM lysosensor DND-189 (Molecular Probes, Carlsbad Calif.) and 20 μM Hoechst 33342 (Molecular Probes) was added and samples were incubated for an additional 30 minutes. Samples were analyzed with a Leica DMI6000 inverted TCS SP5 confocal scanner (Leica Microsystems, Germany). 405 Diode and Argon laser lines were applied to excite the samples and tunable filters were used to minimize the crosstalk between fluorochromes. Gain, offset, and pinhole setting were identical for all samples within the treatment group. Image sections at […] were captured with photomultiplier detectors and maximum projections were prepared with the LAS AF software version 1.6.0 build 1016 (Leica Microsystems, Germany).

8226 cells = test: as above; format: cell-based; conditions: 100 μg/ml, six hours, compared to control cells
Procedure: as §1, §2

H929 MM = test: SCID-Hu in vivo model, tumor burden; parameters: species or system SCID mice; conditions: H929, 8 mg/kg I.P. daily for 14 days starting day 28
Procedure: Tumor burden was measured by circulating […] levels. On day 28 (before drug treatment), measurements were recorded for each individual mouse and subsequent values obtained weekly are represented as a ratio of day 28 (day X/day 28). N=4 mice per group. HYD1 was administered I.P. at 8 mg/kg daily for 14 days (starting day 28).
SCID-Hu model. The SCID-Hu model was performed as previously described (Zhu K et al. Blood, 2005; 105:4759-4766). Briefly, SCID/Beige mice 4-6 weeks old were purchased from Taconic (Germantown, N.Y.). Fetal tissue (18-23 weeks) was obtained from Advance Bioscience Resource (Alameda, Calif.) in compliance with state and federal government regulations. Two bones were surgically implanted in the mammary fat pad of 6-8 week old female SCID mice. […] At 28 days, baseline tumor burden was quantified in the sera using either a lambda (8226) or kappa (H929) ELISA kit per manufacture instructions (Bethyl, Montgomery, Tex.) and mice were randomized into treatment groups. […] Tumor burden was assessed weekly by measuring kappa or lambda levels in the sera.
The SCID-Hu model consists of implanting human fetal bone into the mammary mouse fat pad of SCID mice. […] Human paraprotein can be measured in the mouse sera and levels represent a good marker for evaluating tumor burden and response to chemotherapy. […]

“kikmviswkg ([dK][dI][dK][dM][dV][dI][dS][dW][dK]G) [HYD1]” was tested, and the “formation of double membranes / vesicles (EM)” value (H929 cells [1]) was “increased formation of double membranes”, the “number and size of acidic vesicles” value (H929 cells [2]) was “increase in the number and size of acidic vesicles” and the “number and size of acidic vesicles” value (8226 cells) was “increase in the number and size of acidic vesicles”. The “tumor growth in vivo compared to vehicle control” value (H929 MM) was “reduces H929 MM growth in vivo”.
